Changes are numbered by the printed parent chain. Like-named read-outs stand apart in the source and are kept apart here. Each block holds one compound with its values, some of them ahead of it.
Assays:
Y1 receptor (Y1–YFP) = Y1 receptor (Y1–YFP) (Rattus norvegicus, UniProt P21555); type: cell-based
[1] = biological target: T1, rat Y1 receptor (association with β-arrestin2) (Rattus norvegicus, UniProt P21555); type: cell-based
T1 sequence (P21555 2-382): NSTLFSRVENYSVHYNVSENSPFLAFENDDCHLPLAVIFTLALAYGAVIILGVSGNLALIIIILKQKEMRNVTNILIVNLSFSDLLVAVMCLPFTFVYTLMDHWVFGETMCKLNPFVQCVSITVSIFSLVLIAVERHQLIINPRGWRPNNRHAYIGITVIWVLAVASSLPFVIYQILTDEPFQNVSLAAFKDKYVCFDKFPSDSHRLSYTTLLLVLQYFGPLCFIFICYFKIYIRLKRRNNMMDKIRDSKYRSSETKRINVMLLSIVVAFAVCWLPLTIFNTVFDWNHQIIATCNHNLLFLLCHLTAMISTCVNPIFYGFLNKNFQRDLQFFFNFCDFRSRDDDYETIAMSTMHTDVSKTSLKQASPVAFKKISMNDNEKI

Y1 receptor = biological target: T2, Y1 receptor (Rattus norvegicus, UniProt P21555); assay: [125I]PYY competition binding, Y1/βarr2 membranes; settings: inhibition of [125I]PYY specific binding
T2 sequence (P21555 2-382): T1 sequence (P21555 2-382)

Y1 receptor ΔY346 = type: binding, rat
[2] = biological target: T3, Y1 receptor STA (S352A, T353A) (Rattus norvegicus, UniProt P21555, S352A/T353A); assay: [125I]PYY competition binding, Y1 STA/βarr2 membranes
T3 sequence (P21555 2-382 S352A/T353A): T1 sequence (P21555 2-382) with S351A, T352A

Y1 receptor T356A = biological target: T4, Y1 receptor T356A (Rattus norvegicus, UniProt P21555, T356A); assay: [125I]PYY competition binding, Y1 T356A/βarr2 membranes
T4 sequence (P21555 2-382 T356A): T1 sequence (P21555 2-382) with T355A

Y1 receptor S359A = biological target: T5, Y1 receptor S359A (Rattus norvegicus, UniProt P21555, S359A); assay: [125I]PYY competition binding, Y1 S359A/βarr2 membranes
T5 sequence (P21555 2-382 S359A): T1 sequence (P21555 2-382) with S358A

[3] = biological target: T6, Y1 receptor TSA (T361A, S362A) (Rattus norvegicus, UniProt P21555, S362A/T361A); assay: [125I]PYY competition binding, Y1 TSA/βarr2 membranes
T6 sequence (P21555 2-382 T361A/S362A): T1 sequence (P21555 2-382) with T360A, S361A

Y1 receptor STA, TSA = biological target: T7, Y1 receptor STA, TSA (Rattus norvegicus, UniProt P21555, S352A/S362A/T353A/T361A); assay: [125I]PYY competition binding, Y1 STA, TSA/βarr2 membranes
T7 sequence (P21555 2-382 S352A/T353A/T361A/S362A): T1 sequence (P21555 2-382) with S351A, T352A, T360A, S361A

[4] = biological target: T8, Y1 receptor T356A, S359A, TSA (Rattus norvegicus, UniProt P21555, S359A/S362A/T356A/T361A); assay: [125I]PYY competition binding, Y1 T356A, S359A, TSA/βarr2 membranes
T8 sequence (P21555 2-382 T356A/S359A/T361A/S362A): T1 sequence (P21555 2-382) with T355A, S358A, T360A, S361A

Y1 receptor 5A = biological target: T9, Y1 receptor 5A (Rattus norvegicus, UniProt P21555, S352A/S359A/S362A/T353A/T361A); assay: [125I]PYY competition binding, Y1 5A/βarr2 membranes
T9 sequence (P21555 1-382 S352A/T353A/S359A/T361A/S362A): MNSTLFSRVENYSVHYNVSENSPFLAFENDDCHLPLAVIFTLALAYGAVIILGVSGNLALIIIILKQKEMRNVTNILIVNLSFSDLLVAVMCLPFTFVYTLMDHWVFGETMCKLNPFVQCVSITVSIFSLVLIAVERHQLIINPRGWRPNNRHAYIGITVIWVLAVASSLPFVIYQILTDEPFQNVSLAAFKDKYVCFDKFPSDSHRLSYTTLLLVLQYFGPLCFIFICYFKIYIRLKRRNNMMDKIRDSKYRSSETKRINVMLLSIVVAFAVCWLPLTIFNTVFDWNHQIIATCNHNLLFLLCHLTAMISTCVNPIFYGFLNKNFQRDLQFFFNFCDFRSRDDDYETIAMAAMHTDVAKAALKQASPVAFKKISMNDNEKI

Y1 receptor 6A = biological target: T10, Y1 receptor 6A (Rattus norvegicus, UniProt P21555, S352A/S359A/S362A/T353A/T356A/T361A); assay: [125I]PYY competition binding, Y1 6A/βarr2 membranes
T10 sequence (P21555 1-382 S352A/T353A/T356A/S359A/T361A/S362A): T9 sequence (P21555 1-382 S352A/T353A/S359A/T361A/S362A) with T356A

Y2 receptor = biological target: T11, Y2 receptor (Homo sapiens, UniProt P49146); type: binding
T11 sequence (P49146 1-381): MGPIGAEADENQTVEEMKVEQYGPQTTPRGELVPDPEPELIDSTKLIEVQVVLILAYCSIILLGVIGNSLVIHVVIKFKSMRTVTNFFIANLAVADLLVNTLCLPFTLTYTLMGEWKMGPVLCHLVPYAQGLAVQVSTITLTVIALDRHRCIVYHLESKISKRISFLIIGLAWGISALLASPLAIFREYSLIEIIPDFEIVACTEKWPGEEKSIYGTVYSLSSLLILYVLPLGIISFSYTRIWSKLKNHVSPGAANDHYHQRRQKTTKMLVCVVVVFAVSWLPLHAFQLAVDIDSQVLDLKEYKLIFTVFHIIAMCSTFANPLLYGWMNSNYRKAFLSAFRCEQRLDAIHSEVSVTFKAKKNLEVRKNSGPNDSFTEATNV

Y2 receptor H155P = biological target: T12, Y2 receptor H155P (Homo sapiens, UniProt P49146, H155P); type: binding
T12 sequence (P49146 1-381 H155P): T11 sequence (P49146 1-381) with H155P

[5] = 30 min pre-incubation, NPY 60 min
[6] = example triplicate experiment, Figure 6
[7] = inhibition of [125I]PYY specific binding

Chain of Y1 receptor (Y1–YFP) (P21555 whole entry): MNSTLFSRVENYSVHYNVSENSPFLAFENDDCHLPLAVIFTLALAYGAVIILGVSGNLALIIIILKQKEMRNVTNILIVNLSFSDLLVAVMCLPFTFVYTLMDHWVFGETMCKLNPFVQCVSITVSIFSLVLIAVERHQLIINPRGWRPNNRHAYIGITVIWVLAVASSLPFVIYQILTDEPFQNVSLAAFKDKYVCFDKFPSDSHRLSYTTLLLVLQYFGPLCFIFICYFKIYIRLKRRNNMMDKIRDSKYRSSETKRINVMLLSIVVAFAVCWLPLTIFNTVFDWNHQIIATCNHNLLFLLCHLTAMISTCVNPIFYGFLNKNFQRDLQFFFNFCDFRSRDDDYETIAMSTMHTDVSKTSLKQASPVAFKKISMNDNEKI

agonist activity in Y1–YFP endocytosis assay (Y1 receptor (Y1–YFP)): inactive | Schild slope, pooled [1, 5]: 1.5 ± 0.2 | pA2 (Schild plot), pooled [1, 5]: 8.6 ± 0.2 | agonist activity for stimulation of Y1/βarr2 BiFC ([1]; 1 h incubation): inactive | Schild slope, example experiment [1, 6]: 1.9 | pA2 (Schild plot), example experiment [1, 6]: 8.3
Compound: homodimeric Ile-Glu-Pro-Dpr-Tyr-Arg-Leu-Arg-Tyr-CONH2 [GR231118]

GTPγS 1 µM inhibition (%), Y1 (Y1 receptor; 1 µM GTPγS): 58.6 ± 4.1% | GTPγS pIC50, Y1 (Y1 receptor; 30 µg·mL−1 saponin): 9.05 ± 0.21 | GTPγS 1 µM inhibition (%), Y1 ΔY346 (Y1 receptor ΔY346; 1 µM GTPγS): 61.9 ± 8.8% | GTPγS pIC50, Y1 ΔY346 (Y1 receptor ΔY346; [7]): 8.57 ± 0.04 | GTPγS 1 µM inhibition (%), Y1 STA ([2]; 1 µM GTPγS): 61.4 ± 4.0% | GTPγS pIC50, Y1 STA [2, 7]: 9.00 ± 0.15 | GTPγS 1 µM inhibition (%), Y1 T356A (Y1 receptor T356A; 1 µM GTPγS): 48.3 ± 4.7% | GTPγS pIC50, Y1 T356A (Y1 receptor T356A; [7]): 8.97 ± 0.17 | GTPγS 1 µM inhibition (%), Y1 S359A (Y1 receptor S359A; 1 µM GTPγS): 54.7 ± 3.5% | GTPγS pIC50, Y1 S359A (Y1 receptor S359A; [7]): 9.18 ± 0.08 | GTPγS 1 µM inhibition (%), Y1 TSA ([3]; 1 µM GTPγS): 51.4 ± 4.9% | GTPγS pIC50, Y1 TSA [3, 7]: 9.40 ± 0.10 | GTPγS 1 µM inhibition (%), Y1 STA, TSA (Y1 receptor STA, TSA; 1 µM GTPγS): 58.2 ± 5.0% | GTPγS pIC50, Y1 STA, TSA (Y1 receptor STA, TSA; [7]): 9.03 ± 0.26 | GTPγS 1 µM inhibition (%), Y1 T356A, S359A, TSA ([4]; 1 µM GTPγS): 53.0 ± 7.4% | GTPγS pIC50, Y1 T356A, S359A, TSA [4, 7]: 9.21 ± 0.20 | GTPγS 1 µM inhibition (%), Y1 5A (Y1 receptor 5A; 1 µM GTPγS): 55.7 ± 3.4% | GTPγS pIC50, Y1 5A (Y1 receptor 5A; [7]): 8.81 ± 0.28 | GTPγS 1 µM inhibition (%), Y1 6A (Y1 receptor 6A; 1 µM GTPγS): 63.2 ± 1.2% | GTPγS pIC50, Y1 6A (Y1 receptor 6A; [7]): 9.04 ± 0.02 | GTPγS 1 µM inhibition (%), Y2 (Y2 receptor; 1 µM GTPγS): 73.8 ± 3.5% | GTPγS pIC50, Y2 (Y2 receptor; [7]): 9.19 ± 0.11 | GTPγS 1 µM inhibition (%), Y2 H155P (Y2 receptor H155P; 1 µM GTPγS): 70.2 ± 5.3% | GTPγS pIC50, Y2 H155P (Y2 receptor H155P; [7]): 9.17 ± 0.05
Compound: Nc1nc2c(ncn2[C@@H]2O[C@H](COP(=O)(O)OP(=O)(O)OP(O)(O)=S)[C@@H](O)[C@H]2O)c(=O)[nH]1 [GTPγS, guanosine-5′-O-(3-thio)triphosphate]

Schild slope, example experiment [1]: 1.1 | Schild slope, pooled [1]: 1.1 ± 0.1 | effect of antagonist alone on Y1/βarr2 BiFC, % of 1 µM NPY response [1]: −4.5 ± 10.0%
Compound: N=C(N)NCCC[C@@H](NC(=O)C(c1ccccc1)c1ccccc1)C(=O)NCc1ccc(O)cc1 [BIBP3226, (R)-N2-(diphenylacetyl)-N-[(4-hydroxyphenyl)methyl]-argininamide]

Source: article PMC2901518 (British Journal of Pharmacology, 2010)
